The source of these data is ChEMBL document CHEMBL1153245, “A profile of the in vitro anti-tumor activity of imidazolium-based ionic liquids” (2010).

Common to all, as to assay type: functional
One experiment relates to EKVX. Kind of experiment: Anticancer activity against human EKVX cells assessed cell growth at 10 uM after 48 hrs by sulforhodamine B assay relative to control.
In a further experiment the test system is Malme-3M. Kind of experiment: Anticancer activity against human MALME-3M cells after 48 hrs by sulforhodamine B assay. The following applies: Homo sapiens, Malme-3M, 48 h. In general terms: The SRB assay estimates cell density from bound dye.
In a further experiment the test system is CCRF-CEM. Nature of the experiment: Anticancer activity against human CCRF-CEM cells after 48 hrs by sulforhodamine B assay. The following applies: Homo sapiens, CCRF-CEM, 48 h.
For the next experiment, the system named is SF-268. Kind of experiment: Anticancer activity against human SF268 cells after 48 hrs by sulforhodamine B assay. The following applies: Homo sapiens, SF-268, 48 h.
A further experiment deals with U-251. Nature of the experiment: Anticancer activity against human U251 cells after 48 hrs by sulforhodamine B assay. The following applies: Homo sapiens, U-251, 48 h.
The next experiment relates to SK-MEL-2. Kind of experiment: Anticancer activity against human SK-MEL-2 cells after 48 hrs by sulforhodamine B assay. The following applies: SK-MEL-2, 48 h.
In a further experiment the test system is SF-539. Kind of experiment: Anticancer activity against human SF539 cells after 48 hrs by sulforhodamine B assay. As to conditions: Homo sapiens, SF-539, 48 h.
For a further experiment, the system named is HCC 2998. Kind of experiment: Anticancer activity against human HCC2998 cells after 48 hrs by sulforhodamine B assay. The following applies: Homo sapiens, HCC 2998, 48 h.
A further experiment relates to NCI/ADR-RES. Kind of experiment: Anticancer activity against human NCI/ADR-RES cells after 48 hrs by sulforhodamine B assay. As to conditions: Homo sapiens, NCI/ADR-RES, 48 h.
The next experiment concerns HOP-92. Nature of the experiment: Anticancer activity against human HOP92 cells after 48 hrs by sulforhodamine B assay. As to conditions: Homo sapiens, HOP-92, 48 h.
The next experiment relates to SW-620. Nature of the experiment: Anticancer activity against human SW620 cells after 48 hrs by sulforhodamine B assay. As to conditions: Homo sapiens, SW-620, 48 h.
In a further experiment the test system is CAKI-1. Nature of the experiment: Anticancer activity against human Caki1 cells after 48 hrs by sulforhodamine B assay. As to conditions: Homo sapiens, CAKI-1, 48 h.
The next experiment concerns HOP-62. Kind of experiment: Anticancer activity against human HOP62 cells after 48 hrs by sulforhodamine B assay. The following applies: Homo sapiens, HOP-62, 48 h.
Another experiment relates to SNB-75. Kind of experiment: Anticancer activity against human SNB75 cells after 48 hrs by sulforhodamine B assay. The following applies: Homo sapiens, SNB-75, 48 h.
The subject of another experiment is SNB-19. Nature of the experiment: Anticancer activity against human SNB19 cells after 48 hrs by sulforhodamine B assay. As to conditions: Homo sapiens, SNB-19, 48 h.
The test system of a further experiment is 786-0. Nature of the experiment: Anticancer activity against human 786-0 cells after 48 hrs by sulforhodamine B assay. The following applies: Homo sapiens, 786-0, 48 h.
Another experiment concerns OVCAR-3. Nature of the experiment: Anticancer activity against human OVCAR-3 cells after 48 hrs by sulforhodamine B assay. The following applies: Homo sapiens, OVCAR-3, 48 h.
For the next experiment, the system named is T47D. Kind of experiment: Anticancer activity against human T47D cells after 48 hrs by sulforhodamine B assay. The following applies: Homo sapiens, T47D, 48 h.
The next experiment concerns IGROV-1. Nature of the experiment: Anticancer activity against human IGROV1 cells after 48 hrs by sulforhodamine B assay. The following applies: IGROV-1, 48 h.
For another experiment, the system named is K562. Kind of experiment: Anticancer activity against human K562 cells after 48 hrs by sulforhodamine B assay. As to conditions: Homo sapiens, K562, 48 h.
The subject of a further experiment is TK-10. Nature of the experiment: Anticancer activity against human TK10 cells after 48 hrs by sulforhodamine B assay. As to conditions: Homo sapiens, TK-10, 48 h.
Experiment [1] in a line: Anticancer activity against human Hs 578T cells after 48 hrs by sulforhodamine B assay. As to conditions: Homo sapiens, Hs-578T, 48 h.
A further experiment deals with HCT-116. Nature of the experiment: Anticancer activity against human HCT116 cells after 48 hrs by sulforhodamine B assay. As to conditions: Homo sapiens, HCT-116, 48 h.
A further experiment relates to M14. Nature of the experiment: Anticancer activity against human M14 cells after 48 hrs by sulforhodamine B assay. As to conditions: Homo sapiens, M14, 48 h.
For another experiment, the system named is OVCAR-5. Nature of the experiment: Anticancer activity against human OVCAR5 cells after 48 hrs by sulforhodamine B assay. The following applies: Homo sapiens, OVCAR-5, 48 h.
In another experiment the test system is KM12. Kind of experiment: Anticancer activity against human KM12 cells after 48 hrs by sulforhodamine B assay. The following applies: Homo sapiens, KM12, 48 h.
A further experiment concerns DU-145. Nature of the experiment: Anticancer activity against human DU145 cells after 48 hrs by sulforhodamine B assay. As to conditions: Homo sapiens, DU-145, 48 h.
The next experiment concerns BT-549. Kind of experiment: Anticancer activity against human BT549 cells after 48 hrs by sulforhodamine B assay. The following applies: Homo sapiens, BT-549, 48 h.
The next experiment concerns COLO 205. Kind of experiment: Anticancer activity against human COLO205 cells after 48 hrs by sulforhodamine B assay. The following applies: Homo sapiens, COLO 205, 48 h.
The subject of the next experiment is PC-3. Kind of experiment: Anticancer activity against human PC3 cells after 48 hrs by sulforhodamine B assay. As to conditions: Homo sapiens, PC-3, 48 h.
In a further experiment the test system is UO-31. Kind of experiment: Anticancer activity against human UO31 cells after 48 hrs by sulforhodamine B assay. The following applies: Homo sapiens, UO-31, 48 h.
For another experiment, the system named is SN12C. Kind of experiment: Anticancer activity against human SN12C cells after 48 hrs by sulforhodamine B assay. As to conditions: Homo sapiens, SN12C, 48 h.
The next experiment deals with LOX IMVI. Kind of experiment: Anticancer activity against human LOXIMVI cells after 48 hrs by sulforhodamine B assay. The following applies: Homo sapiens, LOX IMVI, 48 h.
The subject of the next experiment is SK-MEL-28. Kind of experiment: Anticancer activity against human SK-MEL-28 cells after 48 hrs by sulforhodamine B assay. The following applies: Homo sapiens, SK-MEL-28, 48 h.
Where [2] appears, read: read-out: LC50 (the source's name).

As for `COCC[n+]1ccn(C)c1.O=S(=O)([N-]S(=O)(=O)C(F)(F)F)C(F)(F)F`, in the experiment with EKVX, the Activity worked out at 108.75%.

With `Cn1cc[n+](CCO)c1.O=S(=O)([N-]S(=O)(=O)C(F)(F)F)C(F)(F)F`, in the experiment on EKVX, the Activity is reported as 100.51%.

In the experiment on EKVX, `Cn1cc[n+](Cc2ccccc2)c1.F[P-](F)(F)(F)(F)F` came in with an Activity of 102.53%.

For `CCCCCCCCCCCCCCCCCC[n+]1ccn(C)c1.O=S(=O)([N-]S(=O)(=O)C(F)(F)F)C(F)(F)F`, the GI50 was determined as 454 nM in the experiment with Malme-3M; 458 nM in the experiment with CCRF-CEM; 1140 nM with SF-268; 397 nM in the experiment on U-251; 2090 nM in the experiment with SK-MEL-2; 937 nM in the experiment with SF-539. For the same compound, the GI50 in the experiment with HCC 2998 amounted to 494 nM; in the experiment with NCI/ADR-RES, 1240 nM; in the experiment on HOP-92 it was 350 nM; with SW-620, 520 nM; in the experiment on CAKI-1, 263 nM; in the experiment on HOP-62, 1110 nM. Besides, the GI50 in the experiment on SNB-75 was determined as 530 nM; with SNB-19 it was 1180 nM; in the experiment with 786-0, 952 nM; in the experiment on OVCAR-3, 442 nM; with T47D, 600 nM; in the experiment on IGROV-1 it was 516 nM. Also, the GI50 in the experiment on K562 is 312 nM; in the experiment with TK-10, 407 nM; in experiment [1] it was 546 nM; with HCT-116 it was 651 nM; in the experiment with M14, 537 nM; in the experiment on OVCAR-5 it was 909 nM. In addition, the 50% growth inhibitory concentration (GI50) in the experiment on KM12 came to 454 nM; in the experiment with DU-145, 792 nM; in the experiment with BT-549, 1060 nM; in the experiment with COLO 205 it was 350 nM; with PC-3 it was 311 nM; in the experiment with UO-31, 1480 nM. Also, the 50% growth inhibitory concentration (GI50) with SN12C was 1250 nM; in the experiment with LOX IMVI, 406 nM; in the experiment with SK-MEL-28, 1140 nM. In the experiment on Malme-3M, this compound showed an LC50 (concentration killing 50% of cells) of 5.08 µM. In addition, the 50% lethal concentration (LC50) with CCRF-CEM is more than 100 µM; in the experiment on SK-MEL-2, more than 100 µM; with NCI/ADR-RES it was 9.41 µM; in the experiment on SW-620, 6.48 µM; in the experiment on CAKI-1 it was 6.72 µM; with TK-10 it was 4.43 µM. Also, the 50% lethal concentration (LC50) in the experiment on UO-31 is more than 100 µM; in the experiment with SN12C it was 5.72 µM; in the experiment with SK-MEL-28, 6.51 µM. For the same compound, the CC50 in the experiment with SF-268 (setting [2]) was 6.29 µM; with U-251 (setting [2]) it was 3.97 µM; in the experiment on HCC 2998 (setting [2]), 9.07 µM; in the experiment with HOP-92 (setting [2]), more than 100 µM; in the experiment with HOP-62 (setting [2]) it was 9.79 µM; in the experiment on SNB-75 (setting [2]) it was 5.71 µM. For the same compound, the CC50 in the experiment with SNB-19 (setting [2]) is 4.95 µM; in the experiment on T47D (setting [2]), more than 100 µM; in the experiment with IGROV-1 (setting [2]), more than 100 µM; in the experiment on K562 (setting [2]), more than 100 µM; in [1] (setting [2]) it was 8.48 µM; in the experiment with HCT-116 (setting [2]) it was more than 100 µM. Also, the CC50 in the experiment with OVCAR-5 (setting [2]) came to 9.14 µM; with KM12 (setting [2]), 5.46 µM; in the experiment on DU-145 (setting [2]) it was 4.69 µM; with BT-549 (setting [2]), 5.95 µM; with COLO 205 (setting [2]) it was 4.02 µM; in the experiment with PC-3 (setting [2]), 5.26 µM. For the same compound, the CC50 with LOX IMVI (setting [2]) was found to be 5.24 µM. This compound also had an LC50 (lethal concentration, 50% cell kill) with SF-539 of 5.28 µM. Also, the LC50 (50% lethal concentration) is more than 100 µM in the experiment on 786-0, 4.71 µM in the experiment with OVCAR-3 and 6.84 µM with M14.

What is called GI50 is the concentration that inhibits growth by half. As usually defined, the LC50 is the concentration lethal to half of the exposed cells or organisms. High values mean a less lethal substance, low ones a more lethal substance.
